These results are taken from PMC11145868, “Protein target similarity is positive predictor of in vitro antipathogenic activity: a drug repurposing strategy for Plasmodium falciparum” (Journal of Cheminformatics, 2024).

Structures can show the parent of a compound that is named as a salt. Where two headings read alike, the source gives them in different places.

A short description of series [1]: Mammalian cell cytotoxicity assay, HEK293T (CellTiter-Glo, 72 h). To be noted: human, HEK293T cells.
For series [2], the system named is P. falciparum Dd2-HLH. In words: microbe, parasite or virus in culture. Type of series: cell-based, Plasmodium falciparum. To be noted: read-out: Blood stage 72h EC50.
Series [3] has as its system P. falciparum Dd2-HLH. The series can be described thus: microbe, parasite or virus in culture. The class given is cell-based, Plasmodium falciparum.
Series [4] has as its system P. berghei-luciferase sporozoites. The series can be described thus: microbe, parasite or virus in culture. Particulars: liver-stage parasites, 48 hours in culture, read-out: Liver stage 48h EC50. The class given is cell-based, Plasmodium berghei.
The mark [5] stands for this setting: Plasmodium falciparum, DD2, 72 h.
The mark [6] stands for this setting: Plasmodium falciparum, DD2, 48 h, read-out: Blood stage 48h EC50.

In series [1], `CNCCCN1c2ccccc2CCc2ccccc21` [Desipramine] returned a CC50 at 72 h greater than 9.95 µM. In addition, the 50% effective concentration (EC50) was determined as 0.622 µM in series [2] (setting [5]); 0.238 µM in series [3] (setting [6]); 3.33 µM in series [4] (Plasmodium berghei, HepG2).
Take `C/C1=C/C[C@@H](/C(C)=C/c2csc(C)n2)OC(=O)C[C@H](O)C(C)(C)C(=O)[C@H](C)[C@@H](O)[C@@H](C)CCC1` [Desoxyepothilone B]: the EC50 in series [2] (setting [5]) was 0.076 µM; in series [3] (setting [6]), 0.044 µM; in series [4] (Plasmodium berghei, HepG2), 0.986 µM.
Turning to `CN(NC(=O)CC(=O)NN(C)C(=S)c1ccccc1)C(=S)c1ccccc1` [Elesclomol], in series [1], the cytotoxic concentration (CC50) at 72 h worked out at 0.169 µM. The EC50 is 0.437 µM in series [2] (setting [5]); 0.196 µM in series [3] (setting [6]); greater than 10 µM in series [4] (Plasmodium berghei, HepG2).
The like results for `COc1cccc2c1C(=O)c1c(O)c3c(c(O)c1C2=O)C[C@@](O)(C(=O)CO)C[C@@H]3O[C@H]1C[C@H](N)[C@@H](O)[C@H](C)O1` [Epirubicin HCl] were, in that order, 0.103 µM, 0.366 µM, 0.271 µM and 1.48 µM.
The like results for `COc1cc2c(Oc3ccc(NC(=O)C4(C(=O)Nc5ccc(F)cc5)CC4)cc3F)ccnc2cc1OCCCN1CCOCC1` [Foretinib] were, in that order, 2.37 µM, 0.859 µM, 0.139 µM and 6.05 µM.
`CN(C)c1ccc(C(=C2C=CC(=[N+](C)C)C=C2)c2ccc(N(C)C)cc2)cc1` [Gentian violet] came in with a CC50 at 72 h in series [1] of 0.136 µM. For the same compound, the EC50 amounted to 0.456 µM in series [2] (setting [5]); 0.104 µM in series [3] (setting [6]); 0.214 µM in series [4] (Plasmodium berghei, HepG2).
The compound `CN1CCN(C2CCN(C(=O)Nc3cc(Oc4ccc(NC(=O)C5(C(=O)Nc6ccc(F)cc6)CC5)c(F)c4)ccn3)CC2)CC1` [Golvatinib] gave a cytotoxic concentration (CC50) at 72 h in series [1] of 4.36 µM. Moreover, the EC50 worked out at 1.02 µM in series [2] (setting [5]); 0.738 µM in series [3] (setting [6]); 2.84 µM in series [4] (Plasmodium berghei, HepG2).
Compound `CCOc1cc2ncc(C#N)c(Nc3ccc(OCc4cccc(F)c4)c(Cl)c3)c2cc1NC(=O)/C=C/CN(C)C` [HKI-357] came in with a 50% cytotoxic concentration (CC50) at 72 h in series [1] of 1.72 µM. Besides, the concentration for a half-maximal effect (EC50) in series [2] (setting [5]) worked out at 0.619 µM; in series [3] (setting [6]), 0.212 µM; in series [4] (Plasmodium berghei, HepG2), 0.573 µM.
The compound `CCc1cc2c(cc1CC)CC(NC[C@H](O)c1ccc(O)c3[nH]c(=O)ccc13)C2` [Indacaterol maleate] gave a CC50 at 72 h in series [1] greater than 9.95 µM. Further, the EC50 in series [2] (setting [5]) amounted to 0.951 µM; in series [3] (setting [6]), 0.682 µM; in series [4] (Plasmodium berghei, HepG2), 3.11 µM.
The like results for `C[C@@H](Oc1ccc2[nH]nc(/C=C/c3cnn(CCO)c3)c2c1)c1c(Cl)cncc1Cl` [LY-2874455] were, in that order, 0.875 µM, 0.733 µM, 0.512 µM and 2.35 µM.
`CS(=O)(=O)CCNCc1ccc(-c2ccc3ncnc(Nc4ccc(OCc5cccc(F)c5)c(Cl)c4)c3c2)o1` [Lapatinib] showed a half-maximal cytotoxic concentration (CC50) at 72 h in series [1] greater than 9.95 µM. The EC50 in series [2] (setting [5]) was 0.519 µM; in series [3] (setting [6]), 0.3 µM; in series [4] (Plasmodium berghei, HepG2), 4.21 µM.
For `O=C(NC1CCN(CCCCC2(C(=O)NCC(F)(F)F)c3ccccc3-c3ccccc32)CC1)c1ccccc1-c1ccc(C(F)(F)F)cc1` [Lomitapide], in series [1], half-maximal cytotoxicity (CC50 at 72 h) was put at 0.791 µM. The EC50 in series [2] (setting [5]) turned out to be 0.82 µM; in series [3] (setting [6]), 0.277 µM; in series [4] (Plasmodium berghei, HepG2) it was 2.25 µM.
Regarding `CO[C@@H]1[C@H](N(C)C(=O)c2ccccc2)C[C@H]2O[C@]1(C)n1c3ccccc3c3c4c(c5c6ccccc6n2c5c31)C(=O)NC4` [Midostaurin], the 50% cytotoxic concentration (CC50) at 72 h in series [1] was greater than 9.95 µM. The EC50 in series [3] (setting [6]) is 0.086 µM; in series [4] (Plasmodium berghei, HepG2), 3.6 µM.
Consider `Cc1ccc(C(=O)Nc2ccc(CN3CCN(C)CC3)c(C(F)(F)F)c2)cc1C#Cc1cnc2cccnn12` [Pon/atinib], for which the EC50 in series [2] (setting [5]) came out at 0.555 µM; in series [3] (setting [6]), 0.294 µM; in series [4] (Plasmodium berghei, HepG2), 0.241 µM.
In series [1], `CCC1=C[C@@H]2CN(C1)Cc1c([nH]c3ccccc13)[C@@](C(=O)OC)(c1cc3c(cc1OC)N(C)[C@H]1[C@@](O)(C(=O)OC)[C@H](OC(C)=O)[C@]4(CC)C=CCN5CC[C@]31[C@@H]54)C2` [Vinorelbine] registered a CC50 at 72 h of 2.98 µM. The EC50 in series [2] (setting [5]) was determined as 0.809 µM; in series [3] (setting [6]), 0.171 µM.
The like results for `CC(C)c1cc(CNc2nc(Nc3cc(C4CC4)[nH]n3)cc(N3CCN(C)CC3)n2)on1` [XL-228] were, in that order, 0.537 µM, 0.621 µM and 0.056 µM.
As for `COC(=O)C[C@](O)(CCC(C)(C)O)C(=O)O[C@@H]1C(OC)=C[C@]23CCCN2CCc2cc4c(cc2[C@H]13)OCO4` [harringtonine, reference compound], the 50% effective concentration (EC50) in series [2] (setting [5]) stood at 0.043 µM; in series [3] (setting [6]), 0.024 µM; in series [3] (Plasmodium falciparum, DD2, read-out: EC50 (antiplasmodial, quoted in discussion from Supplementary Table 1)) it was 0.0061 µM; in series [4] (Plasmodium berghei, HepG2), 0.029 µM.
Consider Oligomycin A, for which the EC50 in series [2] (P. falciparum blood-stage parasites, 72 hours in culture) is 0.168 µM; in series [3] (P. falciparum blood-stage parasites, 48 hours in culture, read-out: Blood stage 48h EC50), 0.057 µM; in series [4], 0.578 µM.

A word on the CC50: it is the concentration that lowers cell viability or growth by half. Low values mean greater toxicity to the cells, high ones lower toxicity to the cells. In general, EC50 refers to the concentration needed to bring the measured effect to its halfway point.
